Measured values reported in patent US7115608B2, “Pyridinone and pyridinethione derivatives having HIV inhibiting properties” (Centre National de la Recherche Schentifique, priority 2000, dated 2006).
Like-named read-outs stand apart in the source and are kept apart here.

Legend:
[1] = Cytotoxicity in mock-infected MT-4 cells (MTT); format: cell-based; settings: human, mock-infected MT-4 cells, concentration reducing absorbance of mock-infected MT-4 control by 50%
[2] = system: HIV-1; settings: for SI: selectivity index, ratio of CC50 to IC50
Method: (§1) A rapid, sensitive and automated assay procedure was used for the in vitro evaluation of anti-HIV agents. […] Inhibition of the HIV-induced cytopathic effect was used as the end point. The viability of both HIV- and mock-infected cells was assessed spectrophotometrically via the in situ reduction of 3-(4,5-dimethylthiazol-2-yl)-2,5-diphenyltetrazolium bromide (MTT). […] The percent protection achieved by the compound in HIV-infected cells was calculated by the following formula:
(§2) [formula] expressed in %, whereby (ODT)HIV is the optical density measured with a given concentration of the test compound in HIV-infected cells; (ODC)HIV is the optical density measured for the control untreated HIV-infected cells; (ODC)MOCK is the optical density measured for the control untreated mock-infected cells; all optical density values were determined at 540 nm. […] The ratio of CC50 to IC50 was defined as the selectivity index (SI).

[3] = system: HIV-1; assay: microbe, parasite or virus in culture; settings: Human immunodeficiency virus 1, MT4
Method: as §1, §2

[4] = system: mock-infected MT-4 cells; assay: Cytotoxicity in mock-infected MT-4 cells (MTT); format: cell-based; settings: concentration reducing absorbance of mock-infected MT-4 control by 50%

Row | Compound | CC50 [1] [nM] | SI [2] | IC50 [3] [nM] | melting point [°C] | CC50 [4] [nM] | IC50 ([2]; dose achieving 50% protection of HIV-infected MT-4 cells, MTT, OD 540 nm) [nM]
1 | Cc1cc(C)cc(Sc2c(CN3CCOCC3)c(C)[nH]c(=O)c2I)c1 [compound 43, 4-[(3,5-dimethylphenyl)-thio]-3-iodo-6-methyl-5-morpholinomethyl-1H-pyridin-2-one] | 10000 | 10000 | 1 | – | – | –
2 | CCSCc1c(C)[nH]c(=O)c(I)c1Sc1cc(C)cc(C)c1 [compound 45] | > 100000 | >31623 | 3.2 | – | – | –
3 | Cc1cc(C)cc(Sc2c(CO)c(C)[nH]c(=O)c2I)c1 [compound 61] | – | – | – | 240 | – | –
4 | CCOCc1c(C)[nH]c(=O)c(Br)c1Sc1cc(C)cc(C)c1 [compound 85] | > 100000 | >31623 | 3.2 | 183 to 184 | – | –
5 | CCOCc1c(C)[nH]c(=O)c(I)c1Sc1cc(C)cc(C)c1 [compound 86] | > 100000 | >31623 | 3.2 | 220 to 222 | – | –
6 | CCc1c(C)[nH]c(=O)c(I)c1[S+]([O-])c1cc(C)cc(C)c1 (stereo not drawn) [compound 108] | 50000 | 19953 | 2.5 | – | – | –
7 | Cc1cc(C)cc(Oc2c(CCl)c(C)[nH]c(=O)c2I)c1 [compound 125, 5-(chloromethyl)-4-(3,5-dimethylphenoxy)-3-iodo-6-methyl-2(1H)-pyridinone] | – | – | – | 256 to 258 | – | –
8 | CCc1c(CO)[nH]c(=O)c(I)c1Oc1cc(C)cc(C)c1 [compound 133, 4-(3,5-dimethylphenoxy)-5-ethyl-6-(hydroxymethyl)-3-iodo-2(1H)-pyridinone] | > 10000 | >6310 | 1.6 | – | – | –
9 | CCc1c(C=O)[nH]c(=O)c(I)c1Oc1cc(C)cc(C)c1 [compound 159, 4-(3,5-dimethylphenoxy)-3-ethyl-1,6-dihydro-5-iodo-6-oxo-2-pyridinecarboxaldehyde] | – | – | – | 158 | – | –
10 | CCc1c(C)[nH]c(=O)c(CC)c1Oc1cc(C)cc(C)c1 [compound 231, 4-(3,5-dimethylphenoxy)-3,5-diethyl-6-methyl-2(1H)-pyridinone] | 10000 | 3162 | 3.2 | – | – | –
11 | C=Cc1c(Oc2cc(C)cc(C)c2)c(CC)c(C)[nH]c1=O [compound 234, 4-(3,5-dimethylphenoxy)-3-ethenyl-5-ethyl-6-methyl-2(1H)-pyridinone] | 10000 | 5012 | 2 | – | – | –
12 | CCOCc1c(C)[nH]c(=O)c(I)c1Oc1cc(C)cc(C)c1 [compound 255, 4-(3,5-dimethylphenoxy)-5-(ethoxymethyl)-3-iodo-6-methyl-2(1H)-pyridinone] | > 10000 | >15849 | 0.6 | 234 to 236 | – | –
13 | Cc1cc(C)cc(Oc2c(CO)c(C)[nH]c(=O)c2I)c1 [compound 257, 4-(3,5-dimethylphenoxy)-5-(hydroxymethyl)-3-iodo-6-methyl-2(1H)-pyridinone] | > 32000 | >6310 | 5 | – | – | –
14 | CCc1c(C)[nH]c(=O)c(I)c1Oc1cc(I)cc(CC#N)c1 [compound 426, [3-(5-ethyl-3-iodo-6-methyl-2-oxo-1,2-dihydro-pyridin-4-yloxy)-5-iodo-phenyl]-acetonitrile] | 63000 | 39811 | 1.6 | – | – | –
15 | CCc1c(C)[nH]c(=O)c(I)c1Oc1cc(Br)cc(/C=C/C#N)c1 [compound 470] | 13000 | 12589 | 1 | – | – | –
16 | Cc1cc(C)cc(Oc2c(CSCc3csc(C)n3)c(C)[nH]c(=O)c2I)c1 [compound 483, 4-(3,5-dimethylphenoxy)-3-iodo-6-methyl-5-[2-methylthiazol-4-ylmethylsulfanylmethyl)-1H-pyridin-2-one] | > 100000 | >100000 | 1 | – | – | –
17 | Cc1cc(C)cc(Oc2c(CCCc3ccccc3)c(C)[nH]c(=O)c2I)c1 [compound 547, 4-(3,5-dimethylphenoxy)-3-iodo-6-methyl-5-(3-phenyl-propyl)-1H-pyridin-2-one] | > 100000 | >15849 | 6.3 | – | – | –
18 | Cc1cc(C)cc(Oc2c(Cn3ccnn3)c(C)[nH]c(=O)c2I)c1 [compound 713] | – | >39811 | – | – | > 100000 | 2.5
